Laboratory results published in US6608047B2, “Use of low dosage amount of spironolactone for treatment of cardiovascular disease” (Pharmacia Corporation, priority 1995, dated 2003).

Columns and labels:
[1] = system: patients with symptomatic heart failure; assay: Human clinical trial (spironolactone dose-ranging study): cardiac assessments, weight and vital signs; format: in vivo
Text: (§1) All statistical methods were two-sided.

hypertensive-rat cohort = conditions: spironolactone sub-cutaneously; C.G. Brilla et al 1993; cited from earlier work
[2] = system: patients with symptomatic heart failure; assay: Human clinical trial (spironolactone dose-ranging study): hyperkalemia, adverse events, hospitalizations, deaths
Text: as §1
In this analysis, the risk ratio can be thought of as the probability that the patient with the risk factor will develop hyperkalemia, relative to the probability that a patient without the risk factor will develop it.

[3] = system: patients with symptomatic heart failure; assay: Human clinical trial (spironolactone dose-ranging study): clinical laboratory values and neurohormones; conditions: for Creatinine, Week 12 Mean Change / Hematocrit, Week 12 Mean Change / Hemoglobin, Week 12 Mean Change / N-Terminal ANF, Week 12 Mean Change / PRA, Week 12 Mean Change / Potassium, Week 12 Mean Change / Sodium, Week 12 Mean Change / Urinary aldosterone, Week 12 Mean Change: Week 12 vs baseline
myocardial fibrosis = conditions: cited from earlier work
plasma aldosterone = conditions: hypertensive patients; J. Staessen et al 1981; cited from earlier work

SMILES: CC(=O)S[C@@H]1CC2=CC(=O)CC[C@]2(C)[C@H]2CC[C@@]3(C)[C@@H](CC[C@@]34CCC(=O)O4)[C@H]12 [Spironolactone, 17-hydroxy-7α-mercapto-3-oxo-17α-pregn-4-ene-21-carboxylic acid γ-lactone acetate]
- Mean Change in Supine diastolic BP from Baseline to Week 12 ([1]; 12.5 mg/d): −0.19 (9.13)
- Mean Change in Supine pulse from Baseline to Week 12 ([1]; 12.5 mg/d): −3.70 (9.56) BPM
- Mean Change in Supine systolic BP from Baseline to Week 12 ([1]; 12.5 mg/d): 1.84 (11.82)
- Mean Change in Weight from Baseline to Week 12 ([1]; 12.5 mg/d): 0.59 (3.00)
- Mean systolic and diastolic blood pressure (standing and supine) ([1]; 25 mg, 50 mg and 75 mg groups, all visits): decreases in mean systolic and diastolic blood pressure
- Mean Change in Supine diastolic BP from Baseline to Week 12 ([1]; 25 mg/d): −2.74 (9.57)
- Mean Change in Supine pulse from Baseline to Week 12 ([1]; 25 mg/d): −1.40 (10.00) BPM
- Mean Change in Supine systolic BP from Baseline to Week 12 ([1]; 25 mg/d): −4.46 (13.97)
- Mean Change in Weight from Baseline to Week 12 ([1]; 25 mg/d): −0.16 (3.02)
- Mean Change in Supine diastolic BP from Baseline to Week 12 ([1]; 50 mg/d): −5.11 (11.11)
- Mean Change in Supine pulse from Baseline to Week 12 ([1]; 50 mg/d): −3.21 (11.27) BPM
- Mean Change in Supine systolic BP from Baseline to Week 12 ([1]; 50 mg/d): −7.04 (15.83)
- Mean Change in Weight from Baseline to Week 12 ([1]; 50 mg/d): 0.62 (2.05)
- Changes from baseline in body weight ([1]; 75 mg dose group, Day 9 and Week 4): more weight loss than other patients
- Mean Change in Supine diastolic BP from Baseline to Week 12 ([1]; 75 mg/d): −5.91 (9.05)
- Mean Change in Supine pulse from Baseline to Week 12 ([1]; 75 mg/d): −1.07 (13.79) BPM
- Mean Change in Supine systolic BP from Baseline to Week 12 ([1]; 75 mg/d): −5.68 (15.62)
- Mean Change in Weight from Baseline to Week 12 ([1]; 75 mg/d): −0.81 (2.70)
- Sodium retention score, dose response ([1]; Day 9 (p=0.019), not seen at later visits): more reduction in sodium retention score
- Pulse in the supine position, dose response ([1]; Week 4 (p-value=0.045)): greater decreases in pulse in the supine position at higher doses
- Changes in loop diuretic therapy ([1]; Week 8 (p=0.004), higher doses vs placebo, not observed at Week 12): decreases in the loop diuretic dose
- NYHA Class ([1]; spironolactone groups vs placebo, difference not statistically significant): trend toward improvement
- Fibrosis in the hypertensive-rat cohort (hypertensive-rat cohort): prevent fibrosis
- Deaths during the drug treatment period ([2]; all dose groups, 12 weeks): No deaths were reported
- Hyperkalemia incidence, dose-response ([2]; human, in vivo): clear dose-response in term of incidence
- Patients died within 30 days after the study was completed ([2]; previously at the 50 mg dose): Three
- Creatinine, Week 12 Mean Change ([3]; 12.5 mg/d): 6.83 µmol/L
- Hematocrit, Week 12 Mean Change ([3]; 12.5 mg/d): 0.00%
- Hemoglobin, Week 12 Mean Change ([3]; 12.5 mg/d): 0.12 mmol/L/Fe
- N-Terminal ANF, Week 12 Mean Change ([3]; 12.5 mg/d): -287.30 pmol/L
- PRA, Week 12 Mean Change ([3]; 12.5 mg/d): 9.90 NgAngl/L/s
- Potassium, Week 12 Mean Change ([3]; 12.5 mg/d): 0.18 mmol/L
- Sodium, Week 12 Mean Change ([3]; 12.5 mg/d): -1.61 mmol/L
- Urinary aldosterone, Week 12 Mean Change ([3]; 12.5 mg/d): 4.21 nmol/D
- Creatinine, Week 12 Mean Change ([3]; 25 mg/d): 9.30 µmol/L
- Hematocrit, Week 12 Mean Change ([3]; 25 mg/d): −0.02%
- Hemoglobin, Week 12 Mean Change ([3]; 25 mg/d): −0.20 mmol/L/Fe
- N-Terminal ANF, Week 12 Mean Change ([3]; 25 mg/d): -294.60 pmol/L
- PRA, Week 12 Mean Change ([3]; 25 mg/d): 9.33 NgAngl/L/s
- Potassium, Week 12 Mean Change ([3]; 25 mg/d): 0.37 mmol/L
- Sodium, Week 12 Mean Change ([3]; 25 mg/d): -1.85 mmol/L
- Urinary aldosterone, Week 12 Mean Change ([3]; 25 mg/d): 4.27 nmol/D
- Creatinine, Week 12 Mean Change ([3]; 50 mg/d): 14.06 µmol/L
- Hematocrit, Week 12 Mean Change ([3]; 50 mg/d): −0.02%
- Hemoglobin, Week 12 Mean Change ([3]; 50 mg/d): −0.31 mmol/L/Fe
- N-Terminal ANF, Week 12 Mean Change ([3]; 50 mg/d): -351.30 pmol/L
- PRA, Week 12 Mean Change ([3]; 50 mg/d): 13.18 NgAngl/L/s
- Potassium, Week 12 Mean Change ([3]; 50 mg/d): 0.51 mmol/L
- Sodium, Week 12 Mean Change ([3]; 50 mg/d): -2.52 mmol/L
- Urinary aldosterone, Week 12 Mean Change ([3]; 50 mg/d): 8.11 nmol/D
- Creatinine, Week 12 Mean Change ([3]; 75 mg/d): 21.90 µmol/L
- Hematocrit, Week 12 Mean Change ([3]; 75 mg/d): −0.03%
- Hemoglobin, Week 12 Mean Change ([3]; 75 mg/d): −0.46 mmol/L/Fe
- N-Terminal ANF, Week 12 Mean Change ([3]; 75 mg/d): -370.60 pmol/L
- PRA, Week 12 Mean Change ([3]; 75 mg/d): 10.23 NgAngl/L/s
- Potassium, Week 12 Mean Change ([3]; 75 mg/d): 0.58 mmol/L
- Sodium, Week 12 Mean Change ([3]; 75 mg/d): -3.37 mmol/L
- Urinary aldosterone, Week 12 Mean Change ([3]; 75 mg/d): 11.13 nmol/D
- Change from baseline in PRA, dose-response ([3]; Day 9, Week 4 and Week 12, higher doses): greater increases in PRA
- N-Terminal Atrial Natriuretic Factor (ANF), change from baseline ([3]; all active treatments, all treatment visits): decreases from baseline
- Urinary aldosterone excretion, change from baseline ([3]; all treatment groups, 12 week visit): mean increases from baseline
- Change from baseline in serum potassium, dose-response ([3]; all treatment period visits, higher doses): larger increases in potassium
- Myocardial fibrosis in animal models (myocardial fibrosis; D. Klug et al 1993): prevents myocardial fibrosis
- Fibrosis in animal models (myocardial fibrosis; irrespective of left ventricular hypertrophy and hypertension, C.G. Brilla et al 1993): prevent fibrosis

SMILES: C[C@H](CS)C(=O)N1CCC[C@H]1C(=O)O [Captopril, captopril]
- Plasma aldosterone despite continued ACE inhibition (plasma aldosterone): gradual return of plasma aldosterone to baseline levels
